From patent US20120295838A1, “Selective poly-substituted glycine antibiotics and related compositions” (priority 2008, published 2012)
≈ marks a conversion by molar mass, not a printed value. Numbered stars: 1 amine (or outer) side, 2 acyl side, 3 side chain; on linkers, the order of the positions; unused ones are H or OH. Square brackets hold non-standard residues; d marks the D form. Peptide text beside a SMILES is read from it. X2 = CCC[C@H](C)N(CC(=O)[*:2])[*:1]; Nspe = C[C@H](NCC(=O)O)c1ccccc1; Nphe = O=C(O)CNCc1ccccc1; Nlys = NCCCCNCC(=O)O

Columns and labels:
[1] = test system: A549 lung epithelial cells; assay: MTS assay, A549 cells
Protocol: The biocompatibility of selected oligomers with A549 lung epithelial cells was evaluated using the MTS [3-(4,5-dimethylthiazol-2-yl)-5-(3-carboxymethoxyphenyl)-2-(4-sulfophenyl)-2H-tetrazolium] assay.
MTS Assays. A549 carcinoma-derived lung epithelial cells (ATTC CCL-185) were cultured in Ham's F12K media (ATTC, Manassas, Va.). A peptoid solution plate (100 μL/well) was prepared by serial dilution of aqueous peptoid stocks in media. Peptoid solutions were transferred onto a 96-well plate of day-old cell monolayers containing 100 μL/well media with 5000 cells/well. MTS reagent (Promega Corporation, Madison, Wis.) (40 μL/well) was added to each well and the plate was incubated at 37° C. for 3 h, after which absorbance at 490 nm was determined. Percent inhibition was determined as [1−(A−Atest blank)/(Acontrol−Ablank)]×100, where A is the absorbance of the test well and Acontrol the average absorbance of wells with cells exposed to media and MTS (no peptoid). Atest blank (media, MTS, and peptoid) and Ablank (media and MTS) were background absorbances measured in the absence of cells. The average of six replicates are reported, and error bars show one standard deviation.

[2] = test system: E. coli JM109; assay type: cell-based; settings: Table 1; SR = (HD10)/(E. coli MIC)
Excerpt: An initial set of 15 ampetoid analogs was synthesized to determine whether peptoids are affected by structural and sequence modifications in a manner consistent with AMP activities. The designs for ampetoids in this library were derived from two antibacterial and selective amphipathic dodecamers, 1 and 2. Peptoid 1 [H-(Nlys-Nspe-Nspe)4-NH2] is composed of 2/3 Nspe, the peptoid analog of phenylalanine, and 1/3 Mys, the peptoid analog of lysine (see FIG. 1 for the structures of representative peptoid monomers and corresponding N-substituents). Peptoid 2 [H-(Mys-Nssb-Nspe)4-NH2] contains 1/3 isoleucine-like Nssb monomers in place of Nspe. The variant sequences were designed to effect changes in chirality, length, hydrophobicity, charge, and amphipathicity. All of these compounds were tested for antibacterial activity against representative BSL1 Gram-negative (E. coli JM109) and Gram-positive (B. subtilis BR151) bacterial strains. As an initial measure of selectivity, the lytic activity of the peptoids was determined against human erythrocytes. Table 1 summarizes the sequences synthesized, the solvent composition at RP-HPLC elution as a relative measure of molecular hydrophobicity, and antibacterial and hemolytic activities.
Antibacterial assays. MICs were determined according to CLSI M7-A6 protocols in a 96-well microtiter plate. […]

[3] = test system: human erythrocytes; assay: Hemolysis assay; assay type: cell-based
Procedure, shortened: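 Peptoid dilution series (1:2 in PBS) combined with equal volume of 20 vol % human red cells from heparinised blood, 37 °C for 1 h. Released hemoglobin measured as supernatant absorbance at 350 nm post-centrifugation, scaled between PBS-only wells and 0.2 vol % Triton X-100 total lysis.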

[4] = test system: E. coli ATCC 35218; assay type: cell-based; settings: ATCC 35218
[5] = MTS assay, NIH 3T3 cells; assay type: cell-based, mouse; settings: mouse, NIH 3T3 fibroblast cells
Procedure, shortened: (§1)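 NIH/3T3 cells seeded at 5,000 per well, grown a day in DMEM with 10% FBS, then washed and exposed to serially diluted peptoid in HBSS together with MTS reagent. Absorbance at 490 nm read after 3 hours at 37 °C as a measure of metabolic activity; mean of six replicates.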

[6] = test system: NIH 3T3 mouse fibroblast cells; assay: MTS assay, NIH 3T3 cells; assay type: cell-based
Procedure, shortened: as §1

[7] = test system: Enterobacter aerogenes ATCC 35029; assay type: cell-based; settings: ATCC 35029
Protocol: (§2) Antibacterial assays. MICs were determined according to CLSI M7-A6 protocols in a 96-well microtiter plate. In test wells, 50 uL bacterial inoculum (5×10^5 CFU/ml) in Mueller-Hinton broth (MHB) was added to 50 μL peptoid solution in MHB (prepared by 1:2 serial dilutions). Positive controls contained 50 μL inoculum and 50 μL MHB without peptoid. […] MIC values reported were reproducible between three independent experimental replicates, each consisting of two parallel trials. Broad-spectrum antimicrobial susceptibility testing was performed against BSL2 pathogens by Nova Biologicals, Inc. (Conroe, Tex.).
(§3) Broad-spectrum antibacterial assays. MICs of compounds were determined by microdilution procedure in Mueller-Hinton broth (MHB) in accordance with CLSI M7-A6 protocols in a manner similar to that described for the screen antibacterial assays. Inoculated microtiter plates were incubated at 35° C. for 24 hours prior to the result being recorded. Four ATCC strains that were used as standards are recommended by CLSI: Pseudomonas aeruginosa ATCC 27853, Escherichia coli ATCC 25922, Staphylococcus aureus ATCC 29213 and Enterococcus faecalis ATCC 29212. Other strains from the ATCC collection include Proteus vulgaris ATCC 49132, Proteus mirabilis ATCC 35659, Klebsiella pneumoniae ATCC 33495, Enterobacter aerogenes ATCC 35029 and Serratia marcescens ATCC 13880. S. aureus NRS100 (COL) is a well characterized methicillian-resistant S. aureus (MRSA) strain. The strains S. aureus VAN1 and S. aureus VAN2, vancomycin-resistant MRSA strains that were isolated in Michigan and Pennsylvania, were the first vancomycin-resistant strains clinically isolated. S. aureus NRS 119 and S. aureus NRS 120 are linezolid-resistant isolates from the Network on Antimicrobial Resistance in S. aureus (NARSA) collection. E. faecalis 99 and E. faecium 106 are vancomycin-resistant enterococcal strains.

[8] = test system: Enterococcus faecalis 99; assay type: cell-based; settings: 99
Protocol: as §2, §3

[9] = test system: Enterococcus faecalis ATCC 29212; assay type: cell-based; settings: ATCC 29212
Protocol: as §2, §3

[10] = test system: Enterococcus faecium 106; assay type: cell-based; settings: 106
Protocol: as §2, §3

[11] = test system: Escherichia coli ATCC 25922; assay type: cell-based; settings: ATCC 25922
Protocol: as §2, §3

[12] = test system: Klebsiella pneumoniae ATCC 33495; assay type: cell-based; settings: ATCC 33495
Protocol: as §2, §3

[13] = test system: Proteus vulgaris ATCC 49132; assay type: cell-based; settings: ATCC 49132
Protocol: as §2, §3

[14] = test system: Pseudomonas aeruginosa ATCC 27853; assay type: cell-based; settings: ATCC 27853
Protocol: as §2, §3

[15] = test system: Staphylococcus aureus ATCC 29213; assay type: cell-based; settings: ATCC 29213
Protocol: as §2, §3

[16] = test system: Staphylococcus aureus NRS100 (COL); assay type: cell-based; settings: NRS100 (COL)
Protocol: as §2, §3

[17] = test system: Staphylococcus aureus NRS119; assay type: cell-based; settings: NRS119
Protocol: as §2, §3

[18] = test system: Staphylococcus aureus NRS120; assay type: cell-based; settings: NRS120
Protocol: as §2, §3

[19] = test system: Staphylococcus aureus VAN1; assay type: cell-based; settings: VAN1
Protocol: as §2, §3

[20] = test system: Staphylococcus aureus VAN2; assay type: cell-based; settings: VAN2
Protocol: as §2, §3

[21] = test system: B. subtilis ATCC 6633; assay type: cell-based; settings: ATCC 6633
Procedure, shortened: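 Broth microdilution MICs per CLSI M7-A6 in cation-adjusted Mueller-Hinton broth, using 1×10^6 CFU/mL inoculum added 1:1 to twofold serial peptoid dilutions. Values reproducible across three independent experiments, each with two parallel trials.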

C[C@@H](c1ccccc1)N(CC(N)=O)C(=O)CN(C(=O)CN(CCCCN)C(=O)CN(C(=O)CN(C(=O)CN(CCCCN)C(=O)CN(C(=O)CN(C(=O)CN(CCCCN)C(=O)CN(C(=O)CN(C(=O)CN(CCCCN)C(=O)CN(C(=O)CN(C(=O)CNCCCCN)[C@@H](C)c1ccccc1)[C@@H](C)c1ccccc1)[C@@H](C)c1ccccc1)[C@@H](C)c1ccccc1)[C@@H](C)c1ccccc1)[C@@H](C)c1ccccc1)[C@@H](C)c1ccccc1)[C@@H](C)c1ccccc1)[C@@H](C)c1ccccc1 [115 mer, H-(Nlys-Nspe-Nspe)5-NH2]
cytotoxicity (in words) ([1]; A549 lung epithelial cells, MTS, FIG. 2): no worse than pexiganan

CCC[C@H](C)N(CC(=O)N(CC(N)=O)[C@@H](C)c1ccccc1)C(=O)CN(CCCCN)C(=O)CN(C(=O)CN(C(=O)CN(CCCCN)C(=O)CN(C(=O)CN(C(=O)CN(CCCCN)C(=O)CN(C(=O)CN(C(=O)CNCCCCN)[C@@H](C)CCC)[C@@H](C)c1ccccc1)[C@@H](C)CCC)[C@@H](C)c1ccccc1)[C@@H](C)CCC)[C@@H](C)c1ccccc1 [2-Nsap2,5,8,11, H-(Nlys-Nsap-Nspe)4-NH2] (H-[Nlys][X2][Nspe][Nlys][X2][Nspe][Nlys][X2][Nspe][Nlys][X2][Nspe]-NH2)
Selectivity ratio (SR) [2]: >16

C[C@@H](c1ccccc1)N(CC(N)=O)C(=O)CN(Cc1ccccc1)C(=O)CN(CCCCN)C(=O)CN(Cc1ccccc1)C(=O)CN(Cc1ccccc1)C(=O)CN(CCCCN)C(=O)CN(Cc1ccccc1)C(=O)CN(Cc1ccccc1)C(=O)CN(CCCCN)C(=O)CN(Cc1ccccc1)C(=O)CN(Cc1ccccc1)C(=O)CNCCCCN [1achiral-Nspe12, H-(Nlys-Npm-Npm)3-(Nlys-Npm-Nspe)-NH2]
HD50 [3]: > 200 µM | E. coli MIC [4]: 6.3 µM | CC50 at 3 h [5]: 15 µM | ID50 [6]: 15 µM

C[C@@H](c1ccccc1)N(CC(N)=O)C(=O)CN(Cc1ccccc1)C(=O)CN(CCCCN)C(=O)CN(C(=O)CN(Cc1ccccc1)C(=O)CN(CCCCN)C(=O)CN(C(=O)CN(Cc1ccccc1)C(=O)CN(CCCCN)C(=O)CN(C(=O)CN(Cc1ccccc1)C(=O)CNCCCCN)[C@@H](C)c1ccccc1)[C@@H](C)c1ccccc1)[C@@H](C)c1ccccc1 [1-Npm2,5,8,11, H-(Nlys-Npm-Nspe)4-NH2] (H-[Nlys][Nphe][Nspe][Nlys][Nphe][Nspe][Nlys][Nphe][Nspe][Nlys][Nphe][Nspe]-NH2)
E. coli MIC [4]: 6.3 µM | CC50 at 3 h [5]: 6.8 µM | ID50 [6]: 6.8 µM | MIC [7]: 64 mg/L (≈ 36.3 µM) | MIC [8]: 64 mg/L (≈ 36.3 µM) | MIC [9]: 8 mg/L (≈ 4.54 µM) | MIC [10]: 4 mg/L (≈ 2.27 µM) | MIC [11]: 8 mg/L (≈ 4.54 µM) | MIC [12]: 16 mg/L (≈ 9.07 µM) | MIC [13]: 64 mg/L (≈ 36.3 µM) | MIC [14]: 64 mg/L (≈ 36.3 µM) | MIC [15]: 8 mg/L (≈ 4.54 µM) | MIC [16]: 8 mg/L (≈ 4.54 µM) | MIC [17]: 16 mg/L (≈ 9.07 µM) | MIC [18]: 16 mg/L (≈ 9.07 µM) | MIC [19]: 8 mg/L (≈ 4.54 µM) | MIC [20]: 8 mg/L (≈ 4.54 µM)

C[C@@H](c1ccccc1)N(CC(N)=O)C(=O)CN(C(=O)CN(CCCCN)C(=O)CN(C(=O)CN(C(=O)CN(CCCCN)C(=O)[C@@H]1CCCN1C(=O)CN(C(=O)CN(CCCCN)C(=O)CN(C(=O)CN(C(=O)CNCCCCN)[C@@H](C)c1ccccc1)[C@@H](C)c1ccccc1)[C@@H](C)c1ccccc1)[C@@H](C)c1ccccc1)[C@@H](C)c1ccccc1)[C@@H](C)c1ccccc1 [1-Pro6, H-Nlys-Nspe-Nspe-Nlys-Nspe-L-Pro-(Nlys-Nspe-Nspe)2-NH2] (H-[Nlys][Nspe][Nspe][Nlys][Nspe]P[Nlys][Nspe][Nspe][Nlys][Nspe][Nspe]-NH2)
HD10 [3]: 83 µM | HD50 [3]: > 200 µM | ID10 relative to that of pexiganan [1]: 10 times | MIC for B. subtilis ATCC 6633 [21]: 1.6 µM | E. coli MIC [4]: 12.5 µM | MIC for E. coli ATCC 35218 [4]: 12.5 µM | CC50 at 3 h [5]: 18 µM

C[C@@H](c1ccccc1)N(CC(N)=O)C(=O)CN(C(=O)CN(CCCCN)C(=O)CN(C(=O)CN(C(=O)CN(CCCCN)C(=O)CN(C(=O)CN(C(=O)CN(CCCCN)C(=O)[C@@H]1CCCN1C(=O)CN(C(=O)CNCCCCN)[C@@H](C)c1ccccc1)[C@@H](C)c1ccccc1)[C@@H](C)c1ccccc1)[C@@H](C)c1ccccc1)[C@@H](C)c1ccccc1)[C@@H](C)c1ccccc1 [1-Pro3, H-Nlys-Nspe-L-Pro-(Nlys-Nspe-Nspe)3-NH2] (H-[Nlys][Nspe]P[Nlys][Nspe][Nspe][Nlys][Nspe][Nspe][Nlys][Nspe][Nspe]-NH2)
HD10 [3]: 74 µM | E. coli MIC [4]: 12.5 µM | CC50 at 3 h [5]: 12 µM | ID50 [6]: 12 µM
